Assays:
all microorganisms = assay: Preservative efficacy test (PET), overall compliance with European Pharmacopeia / USP criteria; assay type: cell-based
Description: (§3) In preservative efficacy assays, a short study was performed whereby two microorganisms were used to assess the microbial efficacy of the prepared formulations (Staphylococcus aureus and E. coli). Samples were tested at t=0 (bulk) and t=1 month after storage at 25° C.
A multivariate robustness study was carried out to investigate the impact of m-cresol content, sodium phosphate concentration, and m-cresol content on the preservative efficacy of the 5 mg/mL multi-dose formulation. […] A total of 20 bulk formulations were prepared and tested in accordance with the European Pharmacopeia Edition 10.0 Section 5.1.3 and the United States Pharmacopeia 42 <51>.

[1] = MEDI0382 solubility studies (buffers, ionic strength, water, organic solvents, aqueous pH); assay type: physicochemical
Description: The aqueous pH solubility of MEDI0382 was also assessed.

[2] = Description: (§1) The solubility and pH stability of the GLP-1/glucagon agonist peptide MEDI0382 (FIG. 1) were studied. In particular, solubility was studied in different types of buffers, different buffer ionic strengths, pure water, and organic solvents. The aqueous pH solubility of MEDI0382 was also assessed. The chemical stability (as measured by reverse phase ultra performance liquid chromatography (RP-UPLC)) and secondary structure (as measured by Fourier transform infrared spectroscopy (FTIR) and UV circular dichoism spectroscopy (CD)) were also assessed at various pHs. Furthermore, the effect of pH on the kinetics of MEDI0382 aggregation were also assessed in a thioflavin T binding (ThT) assay.
The effect of excipients on fiber formation was analyzed by evaluating whether or not amino acids and divalent ions could prevent fiber formation at pH 7.5. […] The fiber formation was evaluated using a Thioflavin T binding assay (ThT) assay.
(§2) The fiber formation was again evaluated using a ThT assay. […] Chemical degradation associated with these excipients was also monitored for one month for samples kept at 5° C. and 40° C. using an RP-UPLC assay. […] Particle formation associated with these excipients was also monitored by visual inspection after shaking stress (800 rpm for 4 hours). […]

[3] = Secondary structure by FTIR and UV circular dichroism; assay type: physicochemical
[4] = remark: listed apart in the source
Description: as §1, with “assay. […]” for “assay.”
The six selected formulations were used in a 1-month stability study at refrigerated (2-8° C.) and stressed conditions (37° C.). Samples were assessed at time zero, 2 weeks, and 4 weeks by RP-UPLC, DLS, Visual Inspection, Micro-Flow Imaging (MFI), Size Exclusion Chromatography-Multi-Angle Light Scattering (SEC-MALS). […]
as §2

[5] = Visual inspection: gel formation, particles, shaking and freeze/thaw stress; assay type: physicochemical
Description: Samples were stressed by temperature and freeze/thaw and analyzed for purity, aggregation, visual inspection, and for the presence of sub-visible particles.
In the freeze/thaw studies, the formulation was tested in the presence or absence of polysorbate 80 (0.3% v/v) with either 2 mg/ml or 5 mg/ml protein. Fresh solutions (glass vials, Type I, transparent) were frozen by three freeze/thaw cycles. After the thawing, samples were kept at 5 and 25° C. for up to 3 weeks and analysed by visual inspection. Samples without freezing were run in parallel as control. In a second study, the container closer compatibility was assessed by using Nalgene HDPE (more suitable for toxicological studies). In this case, only formulation at 5 mg/mL was analysed.
In these experiments, formulations with 0.03% polysorbate 80 were compared to formulations without polysorbate 80. The samples were incubated for 7 days at 50° C. […] All of the samples were then incubated for another 12 days.

[6] = Dynamic Light Scattering (DLS): particle size, Z-average, hydrodynamic diameter; assay type: physicochemical; conditions: 50 mM PB pH 7.5, 1.85% w/v PG, 0.03% v/v PS80; one month
Description: The principles for formulation ranking used in Table 3 were the loss of peptide purity (main area peak/total peak area) at accelerated conditions (purity loss≤3% per 1 week at 40° C., low risk; purity loss>5% week at 40° C.=high risk) and physical stability at 40 or 5° C. (Z-average<10 nm=low risk, >10 nm=medium risk; >100 nm=high risk).
The six selected formulations were used in a 1-month stability study at refrigerated (2-8° C.) and stressed conditions (37° C.). Samples were assessed at time zero, 2 weeks, and 4 weeks by RP-UPLC, DLS, Visual Inspection, Micro-Flow Imaging (MFI), Size Exclusion Chromatography-Multi-Angle Light Scattering (SEC-MALS).
Purity (RP-UPLC), aggregation (DLS), peptide concentration (A280), High order structure (SEC-MALS)(multiangle (laser) light scattering), Sub-visible particles (MFI), Osmolarity, Conformational stability (Circular dichroism (CD) spectroscopy) and pH tests were conducted. The following temperatures were tested: 5° C., 15° C.; 25° C., 40° C. and −80° C. The following time points were tested: 0, 2 weeks, 1, 2, 3, 6, 9, 12, 24 and 36 months.
In another set of experiments, the impact of sorbitol (0-250 mM), propylene glycol (0-2%), and phenol (0-2%) in a pH range 7-8.2 on the physical stability of MEDI0382 was explored. Physical stability was monitored using DLS (DynaPro plate reader, Wyatt) and the ThT assay.

[7] = Container compatibility: syringe stability and adsorption to containers; assay type: physicochemical; conditions: 50 mM Phosphate buffer, 1.85% (w/v) propylene glycol, pH 7.4
Description: The chemical stability of MEDI0382 was tested in 50 mM Phosphate buffer, 1.85% (w/v) of propylene glycol, pH 7.4.
This MEDI0382 formulation was stable in BD Plastipak syringes for at least 4 hours at room temperature.
However, an adsorption of the peptide to the containers at low levels of dosing (below 0.1 mg/ml) was identified. This MEDI0382 formulation was ruled out because the low doses of drug likely to be required to achieve a pharmacological (agonistic) effect could not feasibly be delivered in this way.

Staphylococcus aureus = assay: Preservative efficacy test (PET; Ph. Eur. / USP), S. aureus; conditions: 5.5 mg/mL MEDI0382 multi-dose formulation
Description: as §3
Preservative efficacy testing (PET) was also performed on 2 and 5 mg/ml MEDI0382 formulations containing 20 mM sodium phosphate buffer, 220 mM sorbitol, and m-Cresol (at the concentrations indicated in Table 35) at pH.
A total of 20 bulk formulations were prepared and tested in accordance with the European Pharmacopeia Edition 10.0 Section 5.1.3 and the United States Pharmacopeia 42 <51>.

## Oc1ccccc1 [phenol]
All microorganisms; with 1 mg/mL MEDI0382
  phenol concentration needed to achieve the less stringent European (“B”) criteria: at least 0.44 % w/v
All microorganisms; with 2 mg/mL MEDI0382
  phenol concentration needed to achieve the less stringent European (“B”) criteria: at least 0.54 % w/v

## CCCCCCCCCCCCCCCC(=O)N[C@@H](CCC(=O)NCCCC[C@H](NC(=O)[C@H](CC(=O)O)NC(=O)[C@H](CO)NC(=O)[C@@H](NC(=O)[C@H](Cc1ccccc1)NC(=O)[C@@H](NC(=O)CNC(=O)[C@H](CCC(N)=O)NC(=O)[C@H](CO)NC(=O)[C@@H](N)Cc1c[nH]cn1)[C@@H](C)O)[C@@H](C)O)C(=O)N[C@@H](CO)C(=O)N[C@@H](CCC(=O)O)C(=O)N[C@@H](Cc1ccc(O)cc1)C(=O)N[C@@H](CC(C)C)C(=O)N[C@@H](CC(=O)O)C(=O)N[C@@H](CO)C(=O)N[C@@H](CCC(=O)O)C(=O)N[C@@H](CCCNC(=N)N)C(=O)N[C@@H](C)C(=O)N[C@@H](CCCNC(=N)N)C(=O)N[C@@H](CC(=O)O)C(=O)N[C@@H](Cc1ccccc1)C(=O)N[C@H](C(=O)N[C@@H](C)C(=O)N[C@@H](Cc1c[nH]c2ccccc12)C(=O)N[C@@H](CC(C)C)C(=O)N[C@@H](CCC(=O)O)C(=O)N[C@@H](C)C(=O)NCC(=O)NCC(=O)O)C(C)C)C(=O)O [MEDI0382]
[1]
  Organic solvent solubility: Low
  Physical state: Amorphous powder, hygroscopic, sensitive
  Preferable buffers solubility: Sodium phosphate and TRIS
[1]; buffers of different ionic strengths, read-out: Ranges of ionic strength solubility
  solubility: ≥ 25 mM
[1]; pH 1 to 3 and 6 to 13
  Aqueous solution pH solubility: increases at pH 1 to 3 and 6 to 13
[1]; pH 4.1 to 4.5
  Aqueous solution pH solubility: Insoluble at pH 4.1 to 4.5, solubility
[2]
  optimal pH for physical stability: > 7.8
[2]; pH 8
  pH impact on aggregation kinetics: lag time: kinetics (higher lag time at pH 8 (93 hours),
[3]
  pH impact on secondary structure: increases α-helix in alkaline conditions (7 to 8)
[4]
  pH at which both physical and chemical stability are improved: ≥ 8
[5]; 0.03% polysorbate 80, pH 6.9, 7 days at 50° C.
  gel formation: turned into a solid gel
[5]; 0.03% polysorbate 80, pH 8.3, 7 days at 50° C.
  gel formation: did not
[5]; 50 mM PB pH 7.5, 1.85% w/v PG, 0.03% v/v PS80, 2-month storage
  visual inspection: gel-like-appearance
[5]; without polysorbate 80, pH 6.9, another 12 days
  gel formation: turned into a soft gel
[6]
  Z-average values (DLS): increased sharply over the month at all temperatures, except at −80 °C
[7]
  concentration at which adsorption of the peptide to the containers was identified: below 0.1 mg/ml
[7]; room temperature
  time stable in BD Plastipak syringes: at least 4 hours

## Cc1cccc(O)c1 [meta-cresol]
Staphylococcus aureus
  m-cresol concentration required for a log reduction consistently greater than 3 at 24 hours: ≥ 0.28 % (w/v)
All microorganisms
  minimum meta-cresol needed to achieve Ph. Eur. Criteria A: ≥ 0.34 % (w/v)
  minimum meta-cresol needed to consistently achieve Ph. Eur. Criteria B: ≥ 0.27 % (w/v)
All microorganisms; 5.5 mg/mL MEDI0382 multi-dose formulation
  m-cresol concentration at which USP and EP criteria A are consistently met for all microorganisms except Staphylococcus aureus (EP criteria B met): ≥ 0.24 % (w/v)

## Cc1cccc(O)c1 [Hedinger m-Cresol, m-Cresol]
All microorganisms; highest concentrations tested, S. aureus and E. coli
  European criteria passed (PET): passed the more stringent European (“A”) criteria
